In patent publication US11129830B2, “PAC-1 combination therapy” (The Board of Trustees of the University of Illinois, priority 2015, dated 2021):
Where two headings read alike, the source gives them in different places.

Columns and labels:
[1] = tested on: ERK1/2 phosphorylation in A375VR cells; test: ERK1/2 phosphorylation Western blot in A375VR; format: cell-based, human; settings: 2 h; vemurafenib 0.5 or 1 μM
Protocol: (§2) Cells and tumor tissues were lysed using RIPA buffer containing phosphatase and protease inhibitor cocktail (Calbiochem). The protein concentration of each sample was determined by the BCA assay (Pierce). Cell lysates containing 20 μg of protein was loaded into each lane of 4-20% gradient gels (BioRad) for SDS-PAGE. Proteins were transferred onto PDVF membrane for Western blot analysis.

[2] = tested on: melanoma patients with the V600E BRAF protein; settings: literature; cited from earlier work
[3] = tested on: caspase-3/-7 activity in A375 cells; settings: PAC-1 12 μM, vemurafenib 10 μM; combination increase as early as 7 h post-treatment
Protocol: (§3) 5,000-8,000 cells were plated in 96 well plates and allowed to adhere. […] Plates were then assessed for caspase-3/7 activity via addition of bifunctional lysis and activity buffer (200 mM HEPES, 400 mM NaCl, 40 mM DTT, 0.4 mM EDTA, 1% Triton-X, pH 7.4) with 20 μM of Ac-DEVD-AFC (SEQ ID NO: 20) (Cayman Chemicals) as the fluorogenic substrate (λex=400 nm, λem=505 nm). Plates were pre-incubated at 37° C. at 30 min in the Synergy multi-mode reader (BioTek) then read for 30 min at 3 min intervals. The slopes for each well were calculated. Activity is expresses as normalized to minimal and maximal activity observed within the assay.

[4] = tested on: panel of nine cell lines of diverse origins and BRAF mutational status; test: Cellular proliferation (SRB) assay, 5-day IC50, panel of nine cell lines; format: cell-based; settings: 120 h, read-out: IC50 values (5 day)
Protocol: (§1) 1000-2000 cells were seeded per well in a 96-well plate and allowed to adhere before DMSO solutions of PAC-1 or vemurafenib were added to each well. Proliferation was assessed by the sulforhodamine B (SRB) assay.

[5] = tested on: ERK1/2 phosphorylation in SK-MEL-5 cells; test: ERK1/2 phosphorylation Western blot in SK-MEL-5; format: cell-based, human; settings: 24 h; vemurafenib 0.5 μM and 1 μM
Protocol: as §2

A375 xenograft tumors = test: A375 subcutaneous mouse xenograft model of melanoma
Protocol: In this model, nude mice were inoculated subcutaneously with A375 cells, and after allowing the tumors to grow, mice were randomized based upon tumor volume into four groups [F=0.03<Fcritical(3.01)] and dosed with PAC-1, vemurafenib, or the combination for 15 days.
0.1 mL of A375 or A375VR in 1:1 DMEM:matrigel (Corning) was injected into the right flank of 6-7 (A375) or 5 (A375VR) week old female athymic nude mice (Charles River). In the both models, the mice were randomized into four groups: control, 100 mg/kg PAC-1, 10 mg/kg vemurafenib, and the combination of 100 mg/kg PAC-1 and 10 mg/kg vemurafenib (n=8). Initial tumor volume measurements were taken and dosing was initiated for a period of 15 days. Vemurafenib was formulated as 5% DMSO in 1% methyl cellulose and given twice daily by oral gavage (p.o.). PAC-1 was formulated in 200 mg/mL hydroxypropyl-β-cyclodextrin at pH 5.5 and given by intraperitoneal (i.p.) injection. Tumor length and width measurements were taken three times a week and volume was calculated as 0.52*L*W^2. At the end of the study, the mice were euthanized and tumors were excised. The tumors were weighed and used for Western blot and immunohistochemistry.

[6] = tested on: ERK1/2 phosphorylation in A375 cells; test: ERK1/2 phosphorylation Western blot in A375; format: cell-based, human
Protocol: as §2

[7] = tested on: caspase-3/-7 activity in UACC-62 cells; settings: PAC-1 12 μM, vemurafenib 10 μM
Protocol: as §3

[8] = tested on: caspase-3/-7 activity in A375 and UACC-62 cells; settings: 24 h; PAC-1 12 μM, vemurafenib 10 μM, trametinib 100 nM
Protocol: (A) Shown is percent apoptotic cell death after 24 h of treatment. […] Activity is expressed as normalized to the positive control. Dashed horizontal lines represent the level of cell death expected from a mere additive effect of the two agents. Values are reported as mean±SEM of at least three experiments.
5,000-8,000 cells were plated in 96 well plates and allowed to adhere. Cells were treated with 1 μM of staurosporine for 24 h or with 13 μM of raptinal (Palchaudhuri et al., Cell Rep 2015; 13:2027-36) for 3 h as positive control, DMSO as negative control and indicated concentrations of PAC-1 and vemurafenib for 0, 2, 4, 7, 10, 12, 16, 20 or 24 h. Plates were then assessed for caspase-3/7 activity via addition of bifunctional lysis and activity buffer (200 mM HEPES, 400 mM NaCl, 40 mM DTT, 0.4 mM EDTA, 1% Triton-X, pH 7.4) with 20 μM of Ac-DEVD-AFC (SEQ ID NO: 20) (Cayman Chemicals) as the fluorogenic substrate (λex=400 nm, λem=505 nm). Plates were pre-incubated at 37° C. at 30 min in the Synergy multi-mode reader (BioTek) then read for 30 min at 3 min intervals. The slopes for each well were calculated. Activity is expresses as normalized to minimal and maximal activity observed within the assay.

A375 and SK-MEL-5 cells = test: Long-term (up to 30 days) continuous treatment, cell regrowth; format: cell-based, human; settings: PAC-1 4 μM or vemurafenib 10 μM
Protocol: We therefore hypothesized that long term treatment with vemurafenib would lead to re-growth of cancer cells, while treatment with PAC-1 should prevent re-growth. To investigate this hypothesis, A375 and SK-MEL-5 cells were plated at low densities and treated continuously with PAC-1 (4 μM) or vemurafenib (10 μM) for up to 30 days. […] However, in wells treated with PAC-1, no regrowth was observed even after 30 days (FIG. 5B). Thus, consistent with the higher Emax value, PAC-1 is able to quantitatively kill cells thereby preventing regrowth.

[9] = tested on: PARP-1 cleavage in SK-MEL-5 cells; test: PARP-1 cleavage Western blot in SK-MEL-5; format: cell-based, human; settings: PAC-1 12 μM, vemurafenib 10 μM
Protocol: as §2

A375 cells = test: Cellular proliferation (SRB) assay in A375; format: cell-based, human; settings: for Emax: A-375, 120 h
Protocol: as §1

[10] = tested on: caspase-3/-7 activity in SK-MEL-5 cells; settings: PAC-1 12 μM, vemurafenib 10 μM
Protocol: as §3

[11] = tested on: PARP-1 cleavage in UACC-62 cells; test: PARP-1 cleavage Western blot in UACC-62; format: cell-based, human; settings: PAC-1 12 μM, vemurafenib 10 μM
Protocol: as §2

A375VR cells [12] = test: Cellular proliferation (SRB) assay in vemurafenib-resistant A375VR; format: cell-based, human; settings: for IC50: 120 h, 5-day
Protocol: To assess if PAC-1 remains active in a cell line that has acquired resistance to vemurafenib, a vemurafenib-resistant A375VR cell line was generated by growing A375 parental cell line in sequentially higher concentrations of vemurafenib (0.5 μM to 1.0 μM) for 2 months. To determine the mechanism of resistance of A375VR, genes for MEK1/2, NRAS and AKT were sequenced, but no commonly reported mutations that would confer resistance were found (Rizos et al., Clinical Cancer Research 2014; 20:1965-77). Similarly, splice variant of the ^V600EBRAF mRNA was also not observed. Through qPCR, A375VR cells have approximately 3-fold higher levels of MDR1 mRNA compared to A375.
as §1

[13] = tested on: ERK1/2 phosphorylation in WTBRAF cell lines; test: ERK1/2 phosphorylation Western blot in WTBRAF cell lines; format: cell-based; settings: 24 h; even at high concentrations (30 μM)
Protocol: as §2

A375VR xenograft tumors = settings: nude mice, 15 days; vemurafenib 10 mg/kg, PAC-1 100 mg/kg
Protocol: All animal studies were performed in accordance with UIUC IACUC guidelines (protocol no. 14292). 0.1 mL of A375 or A375VR in 1:1 DMEM:matrigel (Corning) was injected into the right flank of 6-7 (A375) or 5 (A375VR) week old female athymic nude mice (Charles River). In the both models, the mice were randomized into four groups: control, 100 mg/kg PAC-1, 10 mg/kg vemurafenib, and the combination of 100 mg/kg PAC-1 and 10 mg/kg vemurafenib (n=8). Initial tumor volume measurements were taken and dosing was initiated for a period of 15 days. Vemurafenib was formulated as 5% DMSO in 1% methyl cellulose and given twice daily by oral gavage (p.o.). PAC-1 was formulated in 200 mg/mL hydroxypropyl-β-cyclodextrin at pH 5.5 and given by intraperitoneal (i.p.) injection. Tumor length and width measurements were taken three times a week and volume was calculated as 0.52*L*W^2. At the end of the study, the mice were euthanized and tumors were excised. The tumors were weighed and used for Western blot and immunohistochemistry.

[14] = tested on: ERK1/2 phosphorylation in UACC-62 cells; test: ERK1/2 phosphorylation Western blot in UACC-62; format: cell-based, human; settings: 24 h; vemurafenib 0.5 μM and 1 μM
Protocol: as §2

[15] = tested on: PARP-1 cleavage in A375 cells; test: PARP-1 cleavage Western blot in A375; format: cell-based, human; settings: PAC-1 or PAC-1a 12 μM, vemurafenib 10 μM; up to 24 h
Protocol: as §2

A375 or UACC-62 cells = test: In vitro resistance assay (SRB, 5, 10 and 20 days); format: cell-based, human; settings: for cell death on day 10: A375, alone or with 1 μM PAC-1; for cell number compared to the control, after 5 days: vemurafenib 5 μM or 10 μM
Protocol: The next day, vemurafenib (5 or 10 μM) or PAC-1 (1 μM) were treated in six technical replicates for 5, 10 and 20 days. Fresh media and compounds were added every 2-3 days for the duration of the study. At the end of 5, 10 or 20 days, the wells were fixed with 10% cold trichloroacetic acid for 1 h at 4° C. The wells were then washed, allowed to dry and stained with 0.5% SRB dye for 30 min at room temperature. The wells were then washed with 0.1% acetic acid and allowed to dry. At this point, images of the plates were taken with GelDoc XR (BioRad). Finally, 200 μL of 10 mM Tris base (pH >10.4) was added into well and the absorbance at 510 nm were read using SpectraMax Plus (Molecular Devices). The absorbance at 510 nm is plotted against the days post treatment as an indication of cell proliferation over the time course of the experiment.

A375VR cells [16] = test: Annexin V/PI apoptosis in A375VR; format: cell-based, human; settings: 24 h; in combination with low concentrations of vemurafenib
Protocol: FIGS. 13A-C. Effect of the PAC-1 and vemurafenib combination in A375VR cells. (A) Shown is percent apoptotic cell death (assessed by Annexin V/PI staining and flow cytometry) induced after 24 h of treatment. (B) The apoptotic cell death observed in (A) is greater than that predicted by the Bliss independent model. The excess cell death is calculated as [f(observed, apoptotic)−(f(PAC-1, apoptotic)+f(vemurafenib, apoptotic)−f(PAC-1, apoptotic)*f(vemurafenib, apoptotic))]*100%. […] (C) The synergistic effect of PAC-1 and vemurafenib in activating apoptosis in A375VR after 24 h.

Row | Compound | caspase-3 activity [3] | IC50 [4] | caspase-3/-7 enzymatic activity [7] | caspase-3/-7 activity [8] | time of continuous treatment to regrowth of cells (A375 and SK-MEL-5 cells) | PARP-1 cleavage [9] | Emax (percent cell death induced by high concentrations of compound) (A375 cells; A375 cells, after 5 days) | caspase-3/-7 enzymatic activity [10] | PARP-1 cleavage [11] | IC50 (A375VR cells [12]; Homo sapiens, A375VR) | antitumor effect (tumor volume compared to untreated control) (A375VR xenograft tumors) | PARP-1 cleavage [15] | cell number compared to the control, after 5 days (A375 or UACC-62 cells; A375 and UACC-62, PAC-1 1 μM) | other results
1 | CCCS(=O)(=O)Nc1ccc(F)c(C(=O)c2c[nH]c3ncc(-c4ccc(Cl)cc4)cc23)c1F [vemurafenib] | negligible increases | 200 to 550 nM | little effect | little effect | ≥ 20 days | little effect | ~97% | little effect | little effect | 1500 nM | does not exert any antitumor affect | little effect | significant reduction in cell number | complete inhibition of ERK1/2 phosphorylation [1]: not observed; extension of progression-free survival [2]: 5.3 months; phosphorylation of ERK1/2 [5]: inhibited the phosphorylation of ERK1/2; reduction in tumor volume compared to control (A375 xenograft tumors; nude mice, dosed 15 days, PAC-1 100 mg/kg once daily i.p., vemurafenib 10 mg/kg twice daily p.o.): 53%; mice having comparable tumor mass as the control mice (A375 xenograft tumors; vemurafenib 10 mg/kg twice daily p.o., 15 days): 3 out of 8; inhibition of ERK1/2 phosphorylation ([6]; 2 h, vemurafenib 0.5 or 1 μM, parental A375): complete inhibition; phospho-ERK1/2 bands ([6]; 24 h, vemurafenib 0.5 and 1.0 μM): not observed; Emax (A375 cells; Homo sapiens, A375 cells, after 5 days, read-out: Emax (percent cell death induced by high concentrations of compound)): 96.8 ± 0.3%; A375 cells insensitive to compound (A375 cells; after 5 days, from Emax): ~3%; loss of potency compared to parental A375 (A375VR cells [12]; 5-day IC50, A375VR vs A375): 12 fold; Emax lower than the parental A375 cell line (A375VR cells [12]; A375VR vs A375): 14%; Emax (A375VR cells [12]; Homo sapiens, A375VR): 79 ± 6.3%; inhibition of ERK1/2 phosphorylation [13]: not observed; phosphorylation of ERK1/2 [14]: inhibited the phosphorylation of ERK1/2; cell death on day 10 (A375 or UACC-62 cells; vemurafenib 5 μM): 89.4±1.4%; cell death on day 10 (A375 or UACC-62 cells; vemurafenib 10 μM): 93.2±1.1%; regrowth of colonies after 20 days of treatment (A375 or UACC-62 cells; A375 and UACC-62, vemurafenib 5 or 10 μM, PAC-1 1 μM): significant regrowth of colonies
2 | O=C(CN1CCN(Cc2ccccc2)CC1)N/N=C/c1ccccc1 [PAC-1a] |  |  |  |  |  |  |  |  |  |  |  |  |  | proportion of cells undergoing apoptosis (A375VR cells [16]): abolished
3 | C=CCc1cccc(/C=N/NC(=O)CN2CCN(Cc3ccccc3)CC2)c1O [PAC-1, 2-(4-benzylpiperazin-1-yl)-N-[(2-hydroxy-3-prop-2-enyl-phenyl)methylideneamino]acetamide] | negligible increases | 1000 to 4000 nM | little effect | little effect | > 30 days | little effect | ~100% | little effect | little effect | 2400 nM | does not exert any antitumor affect | little effect | significant reduction in cell number | reduction in tumor mass and volume compared to untreated control (A375 xenograft tumors; PAC-1 100 mg/kg once daily i.p., 15 days): minimal reduction; Emax (A375 cells; Homo sapiens, read-out: Emax (percent cell death induced by high concentrations of compound), A375 cells, after 5 days): 99.4 ± 0.7%; IC50 (A375 cells; Homo sapiens, A-375, read-out: IC50 value): 1200 nM; difference from the control on day 10 (A375 or UACC-62 cells; PAC-1 1 μM): no observable difference
